Conditions: not given

Row | SMILES | melting point [°C] | boiling point [°C] | log10 vapour pressure (mmHg) | ready biodegradability | log10 Koc (L/kg) | log10 biodegradation half-life (days) | log10 Henry constant (atm·m³/mol) | log10 Koa | logP
1 | CC(CC(C(N)=O)(c1ccccc1)c1ccccc1)N(C)C (centres undefined) | 137 |  |  |  |  |  |  |  | 
2 | CCOC(=O)C(O)(c1ccccc1)c1ccccc1 | 34 |  |  |  |  |  |  |  | 
3 | O=C(CCl)Oc1ccccc1 | 44.5 | 232 |  |  |  |  |  |  | 
4 | OC1CCC1 |  | 124 |  |  |  |  |  |  | 
5 | Oc1ccccc1C(F)(F)F | 45.5 | 148 |  |  |  |  |  |  | 
6 | Cc1nc2ccccc2s1 | 14 | 238 | -1.52 |  |  |  |  |  | 
7 | Clc1ccc(-c2nc3c4ccccc4ccn3n2)cc1 | 239 |  |  |  |  |  |  |  | 
8 | Cc1c(C2(c3cc(C(C)C)c(O)c(Br)c3C)OS(=O)(=O)c3ccccc32)cc(C(C)C)c(O)c1Br | 201 |  |  |  |  |  |  |  | 
9 | CC(C)NCc1ccccc1 |  | 200 |  |  |  |  |  |  | 
10 | CCCCCCS | -81 | 151 | 0.624 |  |  |  |  |  | 
11 | Cn1c(=O)c2c(ncn2CCOC(=O)c2cccnc2)n(C)c1=O | 152 |  |  |  |  |  |  |  | 
12 | ClCC=C(Cl)Cl |  | 132 |  |  |  |  |  |  | 
13 | CCOC(=O)CCc1ccccc1 |  | 247 |  |  |  |  |  |  | 
14 | O=C(Cl)c1ccc([N+](=O)[O-])cc1 | 75 |  |  |  |  |  |  |  | 
15 | C#CC(=O)OCC |  | 120 |  |  |  |  |  |  | 
16 | N#Cc1cnc2ccccc2c1 | 109 |  |  |  |  |  |  |  | 
17 | CCCN(CCC)c1c([N+](=O)[O-])cc(C)cc1[N+](=O)[O-] | 80 |  |  |  |  |  |  |  | 
18 | CCCCCCCCCCCCCCCCCC(=O)O | 68.8 | 383 | -6.14 | readily biodegradable |  |  |  |  | 
19 | CC(=O)Nc1ccccc1-c1ccccc1 | 121 | 355 |  |  |  |  |  |  | 
20 | C=CCC1CCCCC1 |  | 132 |  |  |  |  |  |  | 
21 | Cn1c(=O)cc[nH]c1=O |  |  | -3.15 |  |  |  |  |  | 
22 | CC(=O)S[C@H]1CC(=O)C=C2C[C@@H](SC(C)=O)[C@@H]3[C@H](CC[C@@]4(C)[C@H]3CC[C@]4(C)O)[C@]21C | 206 |  |  |  |  |  |  |  | 
23 | Oc1cc2ccccc2cc1O | 162 |  |  |  |  |  |  |  | 
24 | CCC(C(N)=O)c1ccccc1 (centres undefined) | 86 |  |  |  |  |  |  |  | 
25 | CCOP(=S)(Oc1ccc(Cl)cc1Cl)c1ccccc1 (centres undefined) |  |  |  | not readily biodegradable |  |  |  |  | 
26 | Nc1ncnc2c1ncn2[C@@H]1O[C@H](CO)C[C@H]1O | 226 |  |  |  |  |  |  |  | 

Row | SMILES | melting point [°C] | boiling point [°C] | log10 vapour pressure (mmHg) | ready biodegradability | log10 Koc (L/kg) | log10 biodegradation half-life (days) | log10 Henry constant (atm·m³/mol) | log10 Koa | logP
27 | c1ccc(Cn2cccc2)cc1 | 15 | 247 |  |  |  |  |  |  | 
28 | O=C(NC(=O)c1ccccc1)c1ccccc1 | 152 |  |  |  |  |  |  |  | 
29 | NNc1ccccn1 | 46.6 |  |  |  |  |  |  |  | 
30 | O=CC=Cc1ccc([N+](=O)[O-])o1 | 118 |  |  |  |  |  |  |  | 
31 | C=C(C)CCCCCC | -77.8 | 145 |  |  |  |  |  |  | 
32 | CN(C)c1ccccc1C(=O)O | 72 |  |  |  |  |  |  |  | 
33 | CCCCCC(C)(C)CC |  | 161 |  |  |  |  |  |  | 
34 | C=NCC#N | 129 |  |  |  |  |  |  |  | 
35 | c1ccc(-c2cnc(-c3ccccc3)o2)cc1 | 74 | 360 |  |  |  |  |  |  | 
36 | CCOC(=O)Nc1ccccc1 | 53 | 238 |  |  | 1.82 |  |  |  | 
37 | Oc1c(I)cc(I)c2cccnc12 | 210 |  |  |  |  |  |  |  | 
38 | Clc1cccc(Cl)n1 | 88 | 211 |  | not readily biodegradable |  |  |  |  | 
39 | Sc1ccc2ccccc2c1 | 81 | 288 |  | not readily biodegradable |  |  |  |  | 
40 | CC(C)(C)c1ccc2c(c1)C(=O)c1ccccc1C2=O | 99 |  |  | not readily biodegradable |  |  |  |  | 
41 | C[C@]12CC[C@@H](O)C[C@H]1CC[C@@H]1[C@@H]2C(=O)C[C@@]2(C)[C@H]1CC[C@]2(O)C(=O)CO | 214 |  |  |  |  |  |  |  | 
42 | O=C(OC1CCCCC1)c1ccccc1 |  | 285 |  |  |  |  |  |  | 
43 | CCCCCCCCCCCCCl | -9.3 | 260 | -2.2 | readily biodegradable |  |  |  |  | 
44 | CCCC(C)C(C)(C)O (centres undefined) |  | 160 |  |  |  |  |  |  | 
45 | CP(=O)(O)CCC(N)C(=O)[O-].[NH4+] (centres undefined) | 215 |  |  |  |  |  |  |  | 
46 | O=C(NCN1CCOCC1)c1cnccn1 | 118 |  |  |  |  |  |  |  | 
47 | CC(CCc1ccccc1)NC(C)C(O)c1cc(I)c(O)c(I)c1 (centres undefined) | 212 |  |  |  |  |  |  |  | 
48 | C=Cc1ccc(C)cc1C | -64 |  |  |  |  |  |  |  | 
49 | CCOC(=O)C(Cl)C(=O)OCC |  | 222 |  |  |  |  |  |  | 
50 | N#CCO |  | 183 |  |  |  |  |  |  | 
51 | Clc1ccc(C2(Cn3cncn3)CC(Br)CO2)c(Cl)c1 (centres undefined) | 84 |  | -7.52 |  |  |  |  |  | 
52 | c1ccc(CCCc2ccncc2)cc1 |  | 322 |  |  |  |  |  |  | 

Row | SMILES | melting point [°C] | boiling point [°C] | log10 vapour pressure (mmHg) | ready biodegradability | log10 Koc (L/kg) | log10 biodegradation half-life (days) | log10 Henry constant (atm·m³/mol) | log10 Koa | logP
53 | CCCc1ccc(C(=O)O)cc1 | 143 |  |  |  |  |  |  |  | 
54 | O=[N+]([O-])c1ccc(CCl)cc1 | 71 |  |  | not readily biodegradable |  |  |  |  | 
55 | CC(=O)O[C@H]1C[C@@H]2CC[C@@H]3[C@H](CC[C@@]4(C)[C@H]3C[C@H]([N+]3(C)CCCCC3)[C@@H]4OC(C)=O)[C@@]2(C)C[C@@H]1N1CCCCC1.[Br-] | 228 |  |  |  |  |  |  |  | 
56 | CCC1CO1 (centres undefined) |  | 63.3 | 2.26 | readily biodegradable |  |  |  |  | 
57 | CC(C)c1ccc(N)cc1 |  | 225 | -1.08 | not readily biodegradable |  |  |  |  | 
58 | CCCCOCC(C)O (centres undefined) |  | 172 |  | readily biodegradable |  |  |  |  | 
59 | CC(C)N1C(=O)N(c2ccccc2)CSC1=NC(C)(C)C | 105 |  | -5.03 |  |  |  |  |  | 
60 | CC(C)=NO | 61 | 136 |  |  |  |  |  |  | 
61 | c1ccc2c(c1)CCCC2 | -35.7 | 208 | -0.434 | not readily biodegradable |  | 0.903 |  |  | 
62 | Cc1ccc(C)c(OCCCC(C)(C)C(=O)O)c1 | 62 |  |  |  |  |  |  |  | 
63 | C=C(C)COC |  | 68 |  |  |  |  |  |  | 
64 | CCCCCCCCCCCCCCCCCCCCCC(=O)OCC | 50 |  |  |  |  |  |  |  | 
65 | CC1(C)CCCCC1=O | -20.5 | 172 |  |  |  |  |  |  | 
66 | CCCN.Cl | 161 |  |  |  |  |  |  |  | 
67 | CCCCC(=O)OCC(=O)[C@H]1[C@H](C)C[C@H]2[C@@H]3C[C@H](F)C4=CC(=O)C=C[C@]4(C)[C@@]3(F)[C@@H](O)C[C@@]21C | 195 |  |  |  |  |  |  |  | 
68 | Brc1cccs1 |  | 150 | 1.37 |  |  |  |  |  | 
69 | O=C1C=CC(=O)N1c1ccccc1 | 90.5 |  |  |  |  |  |  |  | 
70 | CC(=O)F | -84 | 20.8 |  |  |  |  |  |  | 
71 | CCCCCCCCCCCCCCCCCN | 49 | 336 |  |  |  |  |  |  | 
72 | CCCCNC(=O)n1c(NC(=O)OC)nc2ccccc21 |  |  | -8.43 |  | 2.71 |  | -11.3 |  | 
73 | C[C@]12CC[C@H](O)CC1=CC[C@@H]1[C@@H]2CC[C@]2(C)C(=O)CC[C@@H]12 | 140 |  |  |  |  |  |  |  | 
74 | O=C(O)c1cc(=O)cc(C(=O)O)o1 | 262 |  |  |  |  |  |  |  | 
75 | Brc1ccc(Oc2cc(Br)c(Br)cc2Br)c(Br)c1 |  |  | -7.51 |  |  |  |  | 11.3 | 7.32
76 | CC(C)(C)CC(C)(C)N |  | 140 |  |  |  |  |  |  | 
77 | CNCc1ccccc1 |  | 180 |  |  |  |  |  |  | 
78 | CC12CCC(C1)C(C)(C)C2=O (centres undefined) | 5.37 |  | -0.0876 |  |  |  |  |  | 

Row | SMILES | melting point [°C] | boiling point [°C] | log10 vapour pressure (mmHg) | ready biodegradability | log10 Koc (L/kg) | log10 biodegradation half-life (days) | log10 Henry constant (atm·m³/mol) | log10 Koa | logP
79 | CC1(N)CCCC1 |  | 121 |  |  |  |  |  |  | 
80 | OCC1CCC(CO)O1 (centres undefined) |  | 265 |  |  |  |  |  |  | 
81 | CCCCCCCCCc1ccc2ccccc2c1 | 12 | 372 |  |  |  |  |  |  | 
82 | O=C(O)c1cc2ccccc2[nH]1 | 206 |  |  |  |  |  |  |  | 
83 | CNc1ccccc1 | -57 | 196 | -0.344 | not readily biodegradable | 2.28 |  | -5.05 |  | 
84 | FCCCCl |  | 80 |  |  |  |  |  |  | 
85 | CC(=O)CCC(=O)O | 33 | 246 | -2.95 |  |  |  |  |  | 
86 | O=C(c1ccccc1)c1ccc(Br)cc1 | 82.5 | 350 |  |  |  |  |  |  | 
87 | Nc1ccc([N+](=O)[O-])cc1N | 200 |  |  |  |  |  |  |  | 
88 | CC(=O)NC(CC(=O)[O-])C(=O)[O-] (centres undefined) | 138 |  |  |  |  |  |  |  | 
89 | CC(C)(C)CCl | -20 | 84.3 |  |  |  |  |  |  | 
90 | O=[N+]([O-])c1ccc2c3c(cccc13)CC2 | 100 |  |  |  |  |  |  |  | 
91 | O=C(Nc1ccccc1)C(=O)Nc1ccccc1 | 254 |  |  |  |  |  |  |  | 
92 | ClC(Cl)=C(Cl)Cl | -22.3 | 121 | 1.27 | not readily biodegradable | 2.4 |  | -1.75 | 3.48 | 
93 | CC1=C(CCO)SC2=Nc3nc(C)ncc3CN21 | 229 |  |  |  |  |  |  |  | 
94 | O[C@@H]1C[C@H]2CC[C@@H]1C2 | 133 | 176 |  |  |  |  |  |  | 
95 | CC[C@@]12CCCN3CC[C@]4(c5cccc(OC)c5N(C(C)=O)[C@@H]4CC1)[C@H]32 | 208 |  |  |  |  |  |  |  | 
96 | CC(=O)c1c(C)cc(C)cc1C |  | 241 |  |  |  |  |  |  | 
97 | OCCCCCCCCCCO | 74 |  |  |  |  |  |  |  | 
98 | O=C(O)c1cccnc1C(=O)O | 228 |  |  | readily biodegradable |  |  |  |  | 
99 | C=CCCCC | -140 | 63.4 | 2.26 | readily biodegradable |  |  |  | 2.41 | 
100 | FC(F)(Cl)C(F)(Cl)C(F)(F)Cl | -72 | 73.7 |  |  |  |  |  |  | 
101 | CCCCC(CC)CNC1CCCCC1 (centres undefined) |  | 270 |  |  |  |  |  |  | 

Same assay, conditions: fish

Row | SMILES | log10 BCF | log10 biotransformation half-life (days)
102 | ClC1=C(Cl)C2(Cl)C=CC1(Cl)C2(Cl)Cl | 3.81 | 
103 | Brc1cc(Br)c(Oc2c(Br)cc(Br)c(Br)c2Br)c(Br)c1Br | 5.3 | 
104 | c1ccc2c(c1)CCCC2 | 2.53 | 0.75
105 | Brc1ccc(Oc2cc(Br)c(Br)cc2Br)c(Br)c1 | 6.01 | 1.95
106 | CNc1ccccc1 | 1 | -0.88
107 | ClC(Cl)=C(Cl)Cl | 1.72 | -0.88

From the OPERA property sets (Mansouri et al. 2018)
